Assay results as given in US7687546B2, “Quaternary ammonium compound, process for producing the same, therapeutic agent for cerebrovascular disorder, and therapeutic agent for heart disease” (Activus Pharma Co., Ltd., priority 2004, dated 2010).
Where two headings read alike, the source gives them in different places.

Key:
[1] = test system: middle cerebral artery occlusion and reperfusion model; assay: Cerebral infarction model: middle cerebral artery occlusion and reperfusion (infarct area, neurological symptoms, motor function); type: in vivo, rats (Crj: Wistar strain); parameters: Improvement of neurological symptoms* (total score): scale not given here; settings: rats, average of 10 animals; for Improvement of neurological symptoms* (total score) / Improvement of motor function (time stayed on rotor rod: seconds): single i.v. dose 3 mg/kg; for Improvement of neurological symptoms* (total score): 24 hours after occlusion, total score per Table 4, smaller = greater effect; for Improvement of motor function (time stayed on rotor rod: seconds): rotor rod 14 rotations per minute, maximum 1 minute; for Cerebral infarction reduction rate (%): single intravenous dose 3 mg/kg immediately before reperfusion, vs physiological saline group, bigger = greater effect
Protocol: In this example, a cerebral infarction model was prepared using rats in which reperfusion injury was induced by ischemia and then reperfusion of the middle cerebral artery using the obturator method. The efficacy of compounds of the present invention following single-dose intravenous administration at dose of 3 mg/kg was evaluated in terms of infarct area, neurological symptoms and motor function.
In addition, Edaravone (trade name, Mitsubishi Pharma Corporation) was used as a reference compound. The compounds of the present invention were stored in a refrigerator under protection from light, while Edaravone (trade name) was stored at room temperature under protection from light.
Compounds of present invention: 2 mL of physiological saline was added directly to tube containing 3 mg aliquots of a compound of the present invention to dissolve and prepare solutions having a concentration of 3 mg/2 mL. These samples were prepared at the time of use.
Edaravone: Since Edaravone is an injectable solution having a concentration of 30 mg/20 mL, the required amounts were divided up and used.
Rats: Crj: Wistar strain, males, age 7 weeks (Charles River Laboratories Japan, Inc.)
The test compounds were administered in a single dose into the tail vein using a 1 mL syringe and 27 G injection needle immediately before the reperfusion.
The rats were anesthetized by intraperitoneal administration of sodium pentobarbital at dose of 40 mg/kg (Nembutal (trade name), Dainippon Pharmaceutical Co., Ltd.), and a middle cerebral artery occlusion and reperfusion model was prepared in accordance with the method of Koizumi et al. (Non-Patent Document 2). Namely, the animals were warmed to 37° C. and held in the dorsal position while breathing spontaneously. A midline cervical incision was made, and then the right external carotid artery and right internal carotid artery were separated without damaging the vagus nerve. The right common carotid artery and right external carotid artery were ligated, and a suture was attached to the origin of the internal carotid artery in preparation for ligation and maintenance of occlusion following insertion of an obturator into the internal carotid artery. Moreover, a small incision was made in the right common carotid artery, an obturator provided with an approximately 17 mm silicon-coated suture was inserted into the internal carotid artery, and the internal carotid artery was ligated. Two hours after ligation, the obturator was removed under unanesthesia to reperfuse. Furthermore, flexion of the contralateral forelimb was confirmed 30 minutes after occlusion of the middle cerebral artery.
The following neurological symptoms were evaluated 24 hours after occlusion of the middle cerebral artery according to the evaluation method of Petullo et al. (Non-Patent Document 3). Neurological symptoms consisted of flexion of the forelimbs, torso twisting, resistance when pushing on the back of the right or left shoulder (Lateral push), circling, return of the hindlimb to the floor when lifted from the floor (Hindlimb placement), behavior when the head is faced downward on an angle (Inverted angle board) and a locomotor activity test.
Flexion of the forelimbs: flexion of the forelimbs was observed when the animals were lifted up by the tail.
Torso twisting: Torso twisting was observed when the animals were lifted up by the tail.
Lateral push: Resistance was observed when pushing on the back of the right or left shoulder.
Hindlimb placement: The animals were observed as to whether or not the hindlimb immediately returns to the floor after being lifted from the floor when placed on a horizontal floor.
locomotor activity: locomotor activity was observed when the animals were placed in a polycarbonate cage.
The aforementioned tests were scored based on the criteria described in the following documents, followed by calculation of total scores (see Table 4 “Neurological Symptom Evaluation Criteria and Scores”). […]

[2] = test system: ouabain-induced arrhythmia model; assay: Ouabain-induced arrhythmia model in guinea pigs; type: in vivo, guinea pigs (Hartley strain); settings: dose 3 mg/kg i.v. immediately before ouabain infusion 3 μg/0.1 ml/min
Source text: After guinea pigs (Hartley strain, age 6 weeks) were anesthetized with urethane, induction electrodes were attached to the hind limbs and fore limbs, and standard 2-lead electrocardiograms were monitored with an animal electrocardiogram analysis system (ECG-01, Japan Energy). After confirming that the waveforms of the electrocardiogram and heart rate were within the normal range, an incision was made in the epidermis of the neck followed by inserting a breathing tube into the trachea and cannulating a polyethylene tube into the left external jugular vein and left common carotid artery.
Immediately after administering a compound of the present invention dissolved in a physiological saline solution into the right external jugular vein, ouabain was continuously infused at 3 μg/0.1 ml/min through the cannulated polyethylene tube into the left external jugular vein using a syringe pump (Atom Syringe Pump 1235 (trade name), Atom Medical Corporation).
In addition, the polyethylene tube cannulated in the left common carotid artery was connected to a pressure transducer (P23XL, Gould Electronics), and fed to a pressure processor signal conditioner (TA-11, Gould Electronics) to record blood pressure and heart rate on a thermal plate recorder.
The results were assessed by comparing the dose (μg/kg) of ouabain administered until the appearance of arrhythmia and occurrence of cardiac arrest (arrhythmia is not induced even if a large dose of ouabain is administered if antiarrhythmic effects are high). Furthermore, a solvent dose group (administered only physiological saline in an amount equal to that of the test drug groups), and a positive control group administered a typical antiarrhythmic disopyramide phosphate (physiological saline solution), were also provided.

[3] = test system: model of myocardial ischemia reperfusion injury; assay: Model of myocardial ischemia-reperfusion injury in dogs; type: in vivo; settings: 3 mg/kg into the femoral vein 10 minutes before 20 minutes coronary occlusion, then reperfusion
Protocol: In order to confirm the efficacy of compounds of the present invention on myocardial infarction and arrhythmia caused by myocardial infarction, a pharmacological study was conducted using a model of myocardial ischemia reperfusion injury in dogs for the compounds used in Example 1.
Dogs having body weights of approximately 10 kg were anesthetized with pentobarbital (trade name) (30 mg/ml/kg) followed by shaving the surgical site after starting artificial respiration. The femoral vein and femoral artery were separated followed by cannulation. The femoral vein was used as the administration route for the test substances, while the femoral artery was used to measure blood pressure.
Next, after opening the left chest, making an incision in the pericardium and exposing the left ventricle, the left coronary artery was separated. A silk suture was passed through the coronary artery to occlude, followed by the attachment of an electromagnetic flow meter probe for measuring blood flow.
In addition, a pair of ultrasound crystal probes was fixed in position to measure changes in ventricular wall length as a indicator of myocardial contractile force, and indwelling needle was installed for measuring left intraventricular pressure. Compounds of the present invention were administered into the femoral vein at 3 mg/kg (15% physiological saline solution) followed 10 minutes later by occluding the coronary artery for 20 minutes, and subsequently reperfusing the coronary artery. Myocardial contraction following ischemia-reperfusion was compared for each group based on a value of 100 for myocardial contraction prior to ischemic reperfusion. In addition, comparisons were also made with a solvent control group administered only physiological saline.

[4] = test system: model of myocardial ischemia-reperfusion injury; assay: Model of myocardial ischemia-reperfusion injury in rats; type: in vivo; settings: 3 mg/kg i.v. 5 minutes before 5 minutes coronary ligation, 8 rats per group; for Incidence of Ventricular Fibrillation (%) / Incidence of Ventricular Tachycardia (%): monitored 5 minutes after reperfusion; for Mortality Rate (%): then reperfusion
[5] = test system: guinea pigs; settings: guinea pig, in vivo

| Structure (SMILES) | Improvement of neurological symptoms* (total score) [1] | Improvement of motor function (time stayed on rotor rod: seconds) [1] [s] | Cerebral infarction reduction rate (%) [1] [%] | Ouabain (μg/kg) administered until Cardiac arrest [2] [µg/kg] | Ouabain (μg/kg) administered until appearance of Arrhythmia [2] [µg/kg] | Myocardial Contraction (%) (Based on a value of 100% for prior to ischemia-reperfusion) [3] | Incidence of Ventricular Fibrillation (%) [4] [%] | Incidence of Ventricular Tachycardia (%) [4] [%] | Mortality Rate (%) [4] [%] | Occurrence of Arrhythmia ([5]; 3 mg/kg) | Occurrence of cardiac arrest ([5]; 3 mg/kg) | Occurrence of Arrhythmia ([5]; 10 mg/kg) | Occurrence of cardiac arrest ([5]; 10 mg/kg) |
| --- | --- | --- | --- | --- | --- | --- | --- | --- | --- | --- | --- | --- | --- |
| C[N+](C)(C)CCOc1ccc(O)c(C(=O)[O-])c1 [Compound 9] | 5.95 | 51.6 | 51.5 | 245 | 170 | 78 | 25.0 | 75.0 | 12.5 | No | No | No | No |
| C[N+](C)(C)CCOc1cc(O)cc(C(=O)[O-])c1O [Compound 28] | 5.85 | 53.1 | 54.7 | 267 | 173 | 76 | 12.5 | 62.5 | 12.5 | No | No | No | No |
| C[N+](C)(C)CCOc1cc(C(=O)[O-])c(O)cc1O [Compound 30] | 6.50 | 51.4 | 42.9 | 247 | 173 | 77 | 12.5 | 62.5 | 12.5 | No | No | No | No |
| C[N+](C)(C)CCOc1cc(C(=O)[O-])cc(O)c1O [Compound 31] | 5.25 | 60.0 | 65.3 | 259 | 179 | 89 | 0 | 37.5 | 0 | No | No | No | No |
| C[N+](C)(C)CCOc1ccc(C(=O)[O-])c(O)c1O [Compound 32] | 5.65 | 53.5 | 55.4 | 243 | 176 | 79 | 12.5 | 50.0 | 12.5 | No | No | No | No |
| C[N+](C)(C)CCOc1ccc(O)c(O)c1C(=O)[O-] [Compound 33] | 5.90 | 52.1 | 52.6 | 239 | 171 | 82 | 12.5 | 50.0 | 0 | No | No | No | No |
| COc1ccc(C(=O)[O-])cc1OCC[N+](C)(C)C [Compound 39] | 6.80 | 42.4 | 37.8 | 229 | 165 | 74 | 12.5 | 62.5 | 12.5 | No | No | No | No |
| CC1=NN(c2ccccc2)C(=O)C1 [Edaravone, reference compound] | 6.10 | 42.6 | 37.3 | – | – | – | – | – | – | – | – | – | – |
| CCN(CC)CC(=O)Nc1c(C)cccc1C [Lidocaine, lidocaine, reference compound] | – | – | – | – | – | – | 12.5 | 62.5 | 12.5 | – | – | – | – |
